In patent US8691755B2, “Pegylated C-peptide” (Cebix AB, priority 2010, dated 2014):
Where two headings read alike, the source gives them in different places.

Experiments:
[1] = Repeated-dose GLP toxicology studies with unmodified C-peptide, continuous s.c. infusion; format: in vivo, Cynomolgus monkey; conditions: for No Observed Effect Level: continuous s.c. infusion; for level at time molar: cynomolgus monkey, plasma, sc, read-out: C-peptide Css
Protocol: (§1) In the five GLP toxicology studies conducted with non-PEGylated C-peptide for up to 4 weeks in rats and 13 weeks in Cynomolgus monkeys, the C-peptide was continuously infused s.c. via implanted osmotic pumps. The plasma concentration of C-peptide was measured periodically throughout the studies and a steady-state concentration (Css) over the duration of exposure has been determined for each study as shown in Table E6.

[2] = PK of unmodified C-peptide in beagle dogs, single S.C. dose (first PK study)
Protocol: A pharmacokinetic (PK) study was conducted to determine the C-peptide PK profile with unmodified C-peptide in beagle dogs.
Plasma samples were obtained after centrifugation of the blood (3,000 rpm for 10 minutes) and stored at −80° C. until analysis. […] Results were expressed as C-peptide concentrations. For the PK analysis, the below quantitation level (BQL) was treated as zero and nominal time points were used for all calculations. PK parameters were determined by standard model independent methods based on the individual plasma concentration-time data for each animal using model 200 in WinNonlin Professional 5.2.1 (Pharsight Corp., Mountain View, Calif.).

[3] = Repeated-dose GLP toxicology studies with unmodified C-peptide, continuous s.c. infusion; format: in vivo, Sprague Dawley rat; conditions: for No Observed Effect Level: continuous s.c. infusion; for level at time molar: Sprague Dawley, rat, plasma, sc, read-out: C-peptide Css
Protocol: as §1

[4] = both, beagle, dog, plasma, sc, 0.5 mg/kg

CC(C)C[C@H](NC(=O)[C@H](C)NC(=O)[C@H](CC(C)C)NC(=O)[C@@H]1CCCN1C(=O)[C@H](CCC(N)=O)NC(=O)[C@H](CC(C)C)NC(=O)[C@H](CO)NC(=O)CNC(=O)[C@H](C)NC(=O)CNC(=O)[C@@H]1CCCN1C(=O)CNC(=O)CNC(=O)CNC(=O)[C@H](CC(C)C)NC(=O)[C@H](CCC(=O)O)NC(=O)[C@@H](NC(=O)[C@H](CCC(N)=O)NC(=O)CNC(=O)[C@@H](NC(=O)[C@H](CCC(N)=O)NC(=O)[C@H](CC(C)C)NC(=O)[C@H](CC(=O)O)NC(=O)[C@H](CCC(=O)O)NC(=O)[C@H](C)NC(=O)[C@@H](N)CCC(=O)O)C(C)C)C(C)C)C(=O)N[C@@H](CCC(=O)O)C(=O)NCC(=O)N[C@@H](CO)C(=O)N[C@@H](CC(C)C)C(=O)N[C@@H](CCC(N)=O)C(=O)O [unmodified C-peptide]
No Observed Effect Level ([1]; 13 weeks): 3.6 mg/kg/day | No Observed Effect Level ([1]; 14 days): 2 mg/kg/day | level at time molar ([1]; 13 weeks at NOEL 3.6 mg/kg/day, mean of days 2, 28, 37/38, 56, 91): 40 nM | level at time molar ([1]; 14 days at NOEL 2 mg/kg/day, mean of days 2, 10, 14): 84 nM | AUC(0-t) [2, 4]: 1860 ng·h/mL | Cmax [2, 4]: 757 ng/mL | circulating levels of C-peptide below quantitation level (BQL) ([2]; single S.C. dose 0.5 mg/kg): BQL within half a day | tolerability (clinical abnormalities) ([2]; single S.C. dose 0.5 mg/kg): well tolerated | No Observed Effect Level ([3]; 4 weeks): 0.5 mg/kg/day | No Observed Effect Level ([3]; 14 days): 2 mg/kg/day | level at time molar ([3]; 0.5 mg/kg/day, 4 weeks at NOEL 0.5 mg/kg/day, mean of days 2, 14, 28): 4.2 nM | level at time molar ([3]; 2 mg/kg/day, 14 days at NOEL 2 mg/kg/day, mean of days 2, 10, 14): 27 nM
